Laboratory results taken from patent publication US20100184596A1, “METHOD FOR THE CONTROL OF WEEDS IN TURF” (SYNGENTA CROP PROTECTION, INC., priority 2007, published 2010).

Legend:
Type in all cases: in vivo
[1] = system: Trifolium repens (white clover); experiment: Weed control via post emergence spray, in St. Augustinegrass v. Floratam (Table B5.4)
Procedure: The weed control efficacy of the compound of formula I was tested. The compound was applied via post emergence spray to a range of weeds, at various rates and spray treatment treatment regimes. Percentage weed control assessments were taken at various timepoints.

[2] = system: Bermudagrass v. Tifway 419; experiment: Phytotoxicity in combination with safeners, post emergence spray (Table B4.3); details: no safener, 100 g ai/ha
Procedure: (§1) The phytotoxicity to turfgrass of the compound of formula I in combination with various safeners was tested. The combinations were applied by post emergence spray application. Percentage phytotoxicity assessments were taken at various timepoints. The safeners tested in these trials were cloquintocet-mexyl, cyprosulfamide, a compound of formula 2.3, and isoxadifen-ethyl.

[3] = system: Bermudagrass v. Tifway 419; experiment: Phytotoxicity via granule application (Table B3.2)
Procedure: (§2) The phytotoxicity of the compound of formula I to turfgrass species was tested. The compound was applied by distribution of granule formulations of formula I, post emergence, to turfgrass species at two rates. All treatments were watered-in 1 day after application. Percentage phytotoxicity assessments were taken at various timepoints.
(§3) Two granule formulations were made and tested. Granule A is an inert granule formulation, comprising 99.06 wt % DG Lite 150 granules, 0.14 wt % compound of formula I, 0.50 wt % Sunspray 6N, and 0.30 wt % HiSil 233. The compound of formula I was added to the DG Lite granules while blending in a Continental Rollo-mixer.
(§4) Sunspray 6N oil was then sprayed onto the granules, and HiSil added to dry excess liquid and improve granule flowability. The granules were blended in the mixer for 20-30 minutes until homogeneous, and passed through a −12/+60 mesh to remove over and under sized particles.
(§5) Granule B is a fertiliser granule formulation, comprising 54.65 wt % urea, 6.63 wt % triple super phosphate, 4.95 wt % potassion chloride, 9.91 wt % huber clay, 7.22 wt % HiSil 233, 0.16 wt % compound of formula I, […] agnique ME 181, 2.07 wt % stepfac 8180, and 11.98 wt % water. […] The remaining HiSil was added and granules dried at 40-60° C., to remove excess liquid. Finally, the granules were passed through a −12/+60 mesh to remove over and under sized particles.

[4] = system: Hydrocotyle sp. (dollarweed); experiment: Weed control in combination with safeners, post emergence spray, in St. Augustinegrass v. Delmar (Table B7.1); details: no safener, 100 g ai/ha
Procedure: The weed control efficacy of the compound of formula I in combination with various safeners was tested. The combinations were applied by post emergence spray application. Percentage weed control assessments were taken at various timepoints.

[5] = system: Kentucky bluegrass (3D blend); experiment: Phytotoxicity via post emergence spray application (Table B2.6); details: 1 appl
Procedure: The phytotoxicity of the compound of formula I to turfgrass species was tested. The compound was applied via post emergence spray to a range of warm and cool season turfgrass species at various rates and spray treatment treatment regimes. Percentage phytotoxicity assessments were taken at various timepoints.

[6] = system: Perennial ryegrass v. blend of Bright Star, Citation Fore and Quick Trans; experiment: Phytotoxicity via granule application, various inert granules (Table B3.4); details: 8 DAT
Procedure: as §2
In Tables B3.3 and B3.4, the granular formulations tested were made by spraying the compound of formula I onto various inert granules. In each of these trials, the granule formulations were tested at a higher rate than the corresponding spray application

turfgrass = experiment: Example B4, conclusion in words; details: in combination with a safener
Procedure: as §1

[7] = system: St. Augustinegrass v. Delmar; experiment: Phytotoxicity via granule application (Table B3.1)
Procedure: as §2, §3, §4, §5

[8] = Granule A (inert), 112 g ai/ha, 7 DAT
[9] = Granule A (inert), 280 g ai/ha, 7 DAT
[10] = Granule A (inert), 280 g ai/ha, 11 DAT
[11] = Granule A (inert), 280 g ai/ha, 15 DAT
[12] = Granule B (fertiliser), 112 g ai/ha, 7 DAT

## COCCOCc1nc(C(F)(F)F)ccc1C(=O)C1=C(O)C2CCC(C2)C1=O (stereo not shown) [Formula I, 4-Hydroxy-3-[2-(2-methoxyethoxymethyl)-6-trifluoromethylpyridine-3-carbonyl]-bicyclo[3.2.1]oct-3-en-2-one]
[1]; 1 appl, 140 g ai/ha, 5 DAT
  % control: 21.67%
[1]; 1 appl, 140 g ai/ha, 13 DAT
  % control: 86.67%
[1]; 1 appl, 140 g ai/ha, 21 DAT
  % control: 85.00%
[1]; 1 appl, 140 g ai/ha, 27 DAT
  % control: 88.33%
[1]; 1 appl, 140 g ai/ha, 35 DAT
  % control: 78.33%
[1]; 1 appl, 140 g ai/ha, 42 DAT
  % control: 76.67%
[1]; 1 appl, 140 g ai/ha, 61 DAT
  % control: 76.67%
[1]; 1 appl, 280 g ai/ha, 5 DAT
  % control: 25.00%
[1]; 1 appl, 280 g ai/ha, 13 DAT
  % control: 91.67%
[1]; 1 appl, 280 g ai/ha, 21 DAT
  % control: 90.00%
[1]; 1 appl, 280 g ai/ha, 27 DAT
  % control: 93.33%
[1]; 1 appl, 280 g ai/ha, 35 DAT
  % control: 91.67%
[1]; 1 appl, 280 g ai/ha, 42 DAT
  % control: 90.00%
[1]; 1 appl, 280 g ai/ha, 61 DAT
  % control: 90.00%
[1]; 2 appl, 140 g ai/ha, 5 DAT
  % control: 25.00%
[1]; 2 appl, 140 g ai/ha, 13 DAT
  % control: 88.33%
[1]; 2 appl, 140 g ai/ha, 21 DAT
  % control: 86.67%
[1]; 2 appl, 140 g ai/ha, 27 DAT
  % control: 91.67%
[1]; 2 appl, 140 g ai/ha, 35 DAT
  % control: 96.00%
[1]; 2 appl, 140 g ai/ha, 42 DAT
  % control: 96.67%
[1]; 2 appl, 140 g ai/ha, 61 DAT
  % control: 100.00%
[1]; 2 appl, 280 g ai/ha, 5 DAT
  % control: 26.67%
[1]; 2 appl, 280 g ai/ha, 13 DAT
  % control: 95.00%
[1]; 2 appl, 280 g ai/ha, 21 DAT
  % control: 93.33%
[1]; 2 appl, 280 g ai/ha, 27 DAT
  % control: 95.00%
[1]; 2 appl, 280 g ai/ha, 35 DAT
  % control: 99.33%
[1]; 2 appl, 280 g ai/ha, 42 DAT
  % control: 100.00%
[1]; 2 appl, 280 g ai/ha, 61 DAT
  % control: 100.00%
[2]; 7 DAT
  % phytotoxicity: 56.70%
[2]; 11 DAT
  % phytotoxicity: 38.30%
[2]; 18 DAT
  % phytotoxicity: 9.30%
[3]; [8]
  % phytotoxicity: 6.00%
[3]; Granule A (inert), 112 g ai/ha, 11 DAT
  % phytotoxicity: 0.00%
[3]; [9]
  % phytotoxicity: 23.30%
[3]; [10]
  % phytotoxicity: 8.30%
[3]; [11]
  % phytotoxicity: 2.30%
[3]; Granule A (inert), 280 g ai/ha, 20 DAT
  % phytotoxicity: 0.00%
[3]; [12]
  % phytotoxicity: 16.70%
[3]; Granule B (fertiliser), 280 g ai/ha, 7 DAT
  % phytotoxicity: 33.30%
[4]; 7 DAT
  % control: 41.70%
[4]; 11 DAT
  % control: 61.70%
[4]; 18 DAT
  % control: 61.70%
[5]; 10 g ai/ha, 4 DAT
  % phytotoxicity: 7.50%
[5]; 10 g ai/ha, 12 DAT
  % phytotoxicity: 0.00%
[5]; 10 g ai/ha, 22 DAT
  % phytotoxicity: 0.00%
[5]; 10 g ai/ha, 33 DAT
  % phytotoxicity: 0.00%
[5]; 10 g ai/ha, 42 DAT
  % phytotoxicity: 0.00%
[5]; 10 g ai/ha, 160 DAT
  % phytotoxicity: 0.00%
[5]; 20 g ai/ha, 4 DAT
  % phytotoxicity: 2.50%
[5]; 20 g ai/ha, 12 DAT
  % phytotoxicity: 0.00%
[5]; 20 g ai/ha, 22 DAT
  % phytotoxicity: 0.00%
[5]; 20 g ai/ha, 33 DAT
  % phytotoxicity: 0.00%
[5]; 20 g ai/ha, 42 DAT
  % phytotoxicity: 0.00%
[5]; 20 g ai/ha, 160 DAT
  % phytotoxicity: 0.00%
[5]; 40 g ai/ha, 4 DAT
  % phytotoxicity: 7.50%
[5]; 40 g ai/ha, 12 DAT
  % phytotoxicity: 0.00%
[5]; 40 g ai/ha, 22 DAT
  % phytotoxicity: 0.00%
[5]; 40 g ai/ha, 33 DAT
  % phytotoxicity: 0.00%
[5]; 40 g ai/ha, 42 DAT
  % phytotoxicity: 0.00%
[5]; 40 g ai/ha, 160 DAT
  % phytotoxicity: 0.00%
[5]; 80 g ai/ha, 4 DAT
  % phytotoxicity: 7.50%
[5]; 80 g ai/ha, 12 DAT
  % phytotoxicity: 0.00%
[5]; 80 g ai/ha, 22 DAT
  % phytotoxicity: 0.00%
[5]; 80 g ai/ha, 33 DAT
  % phytotoxicity: 0.00%
[5]; 80 g ai/ha, 42 DAT
  % phytotoxicity: 0.00%
[5]; 80 g ai/ha, 160 DAT
  % phytotoxicity: 0.00%
[5]; 160 g ai/ha, 4 DAT
  % phytotoxicity: 7.50%
[5]; 160 g ai/ha, 12 DAT
  % phytotoxicity: 0.00%
[5]; 160 g ai/ha, 22 DAT
  % phytotoxicity: 0.00%
[5]; 160 g ai/ha, 33 DAT
  % phytotoxicity: 0.00%
[5]; 160 g ai/ha, 42 DAT
  % phytotoxicity: 0.00%
[5]; 160 g ai/ha, 160 DAT
  % phytotoxicity: 0.00%
[6]; Agsorb LUM GA granule, 520 g ai/ha
  % phytotoxicity: 20.0%
[6]; Agsorb LUM MS granule, 520 g ai/ha
  % phytotoxicity: 5.8%
[6]; Agsorb RUM GA granule, 520 g ai/ha
  % phytotoxicity: 18.8%
[6]; Bio Dac granule, 520 g ai/ha
  % phytotoxicity: 13.3%
[6]; DG Lite granule, 520 g ai/ha
  % phytotoxicity: 18.8%
[6]; Eco Gran granule, 520 g ai/ha
  % phytotoxicity: 18.8%
[6]; Non dispersing extruded granules, 520 g ai/ha
  % phytotoxicity: 18.8%
[6]; Oil dry, 520 g ai/ha
  % phytotoxicity: 6.3%
[6]; Spray, 260 g ai/ha
  % phytotoxicity: 31.3%
turfgrass
  phytotoxicity in combination with a safener, in words: reduces the level of phytotoxicity to turfgrass
[7]; [8]
  % phytotoxicity: 8.30%
[7]; Granule A (inert), 112 g ai/ha, 20 DAT
  % phytotoxicity: 0.00%
[7]; [9]
  % phytotoxicity: 20.00%
[7]; [10]
  % phytotoxicity: 5.70%
[7]; [11]
  % phytotoxicity: 3.30%
[7]; [12]
  % phytotoxicity: 23.30%
[7]; Granule B (fertiliser), 112 g ai/ha, 11 DAT
  % phytotoxicity: 10.00%
[7]; Granule B (fertiliser), 112 g ai/ha, 15 DAT
  % phytotoxicity: 5.00%
[7]; Granule B (fertiliser), 280 g ai/ha, 11 DAT
  % phytotoxicity: 20.00%
